# pKi: −log10 of the molar value. Like-named read-outs stand apart in the source and are kept apart here.
# Key:
# Type in all cases: biochemical
# Cathepsin B = Cathepsin B (Homo sapiens, UniProt P07858); test: Cathepsin B inhibition, fluorogenic peptide substrate kinetic assay (selectivity); conditions: ratio of cathepsin B inhibition constant to cathepsin S inhibition constant;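 note: value is the cathepsin B inhibition constant divided by the cathepsin S one, each from kinetic fluorescence readings (ex 380 nm, em 450 nm) of a 10 µM coumarin peptide substrate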
# Cathepsin S = Cathepsin S (Homo sapiens, UniProt P25774); test: Cathepsin S inhibition, fluorogenic peptide substrate kinetic assay;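 note: cleavage rate of a coumarin-labelled peptide substrate (50 µM) read as fluorescence increase at Ex 380 nm and Em 450 nm, relative to inhibitor-free control reactions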
# Sequence of Cathepsin S (P25774 115-331, species assumed): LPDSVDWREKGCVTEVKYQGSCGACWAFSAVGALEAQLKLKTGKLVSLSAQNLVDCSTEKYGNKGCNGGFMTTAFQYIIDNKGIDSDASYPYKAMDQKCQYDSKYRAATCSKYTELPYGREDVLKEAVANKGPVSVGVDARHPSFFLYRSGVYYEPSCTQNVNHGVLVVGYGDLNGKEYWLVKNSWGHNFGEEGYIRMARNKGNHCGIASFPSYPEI
# Cathepsin K = biological target: T1, Cathepsin K (Homo sapiens, UniProt P43235); test: Cathepsin K inhibition, fluorogenic peptide substrate kinetic assay (selectivity); conditions: ratio of cathepsin K inhibition constant to cathepsin S inhibition constant
# T1 sequence (P43235 115-329): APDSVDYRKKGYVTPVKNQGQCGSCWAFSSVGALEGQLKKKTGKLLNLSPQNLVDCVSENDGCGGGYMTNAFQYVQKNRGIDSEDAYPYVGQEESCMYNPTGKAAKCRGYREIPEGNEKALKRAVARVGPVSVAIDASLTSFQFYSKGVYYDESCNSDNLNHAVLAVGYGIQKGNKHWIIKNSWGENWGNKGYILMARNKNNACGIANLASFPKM
# Cathepsin L = Cathepsin L (Homo sapiens, UniProt P07711); test: Cathepsin L inhibition, fluorogenic peptide substrate kinetic assay (selectivity); conditions: ratio of cathepsin L inhibition constant to cathepsin S inhibition constant
# Sequence of Cathepsin L (P07711 114-333, species assumed): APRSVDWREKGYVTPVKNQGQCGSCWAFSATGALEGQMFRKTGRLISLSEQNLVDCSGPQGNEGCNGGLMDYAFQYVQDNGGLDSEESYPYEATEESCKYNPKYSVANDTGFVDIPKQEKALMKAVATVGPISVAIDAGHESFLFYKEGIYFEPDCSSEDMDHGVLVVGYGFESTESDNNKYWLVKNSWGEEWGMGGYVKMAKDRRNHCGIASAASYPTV
# [1] = Cathepsin S inhibition constant, pH5.5, 20 minutes preincubation at room temperature, read-out: Ki Cat. S
Compound,Selectivity for Cat. S over Cat. B (Cathepsin B),pKi (Cathepsin S; [1]),Selectivity for Cat. S over Cat. K (Cathepsin K),Selectivity for Cat. S over Cat. L (Cathepsin L),pKi (Cathepsin S)
"CC(=O)N1CCN(C(=O)C[C@@H](CC2CCCCC2)C(=O)N[C@@H](C)CNc2ccc(OC(F)(F)F)cc2)CC1 [Example 52, 4-(4-Acetyl-piperazin-1-yl)-2-(R)-cyclohexylmethyl-N-[1-(S)-methyl-2-(4-trifluoromethoxy-phenylamino)-ethyl]-4-oxo-butyramide]","++ (++, >100)",6.00 to 7.00,"+ (+, >10)","++ (++, >100)",
"COc1ccc([C@H](CC(=O)N2CCOCC2)C(=O)N[C@H](CNc2ccc(OC(F)(F)F)cc2)C(C)C)cc1 [Example 53, 2-(S)-(4-Methoxy-phenyl)-N-{2-methyl-1-(S)-[(4-trifluoromethoxy-phenylamino)-methyl]-propyl}-4-morpholin-4-yl-4-oxo-butyramide]","++ (++, >100)",,"++ (++, >100)","++ (++, >100)",6.00 to 7.00
"C[C@@H](CN1CC(C)(C)c2cc(F)ccc21)NC(=O)[C@@H](CC(=O)N1CCOCC1)CC1CCCCC1 [Example 54, 2-(R)-Cyclohexylmethyl-N-[2-(5-fluoro-3,3-dimethyl-2,3-dihydro-indol-1-yl)-1-(S)-methyl-ethyl]-4-morpholin-4-yl-4-oxo-butyramide]","+++ (+++, >1000)",> 7.00,"+++ (+++, >1000)","++ (++, >100)",
"CC(C)[C@@H](CNc1ccc(OC(F)(F)F)cc1)NC(=O)[C@@H](CC(=O)N1CCOCC1)c1ccc(C(F)(F)F)cc1 [Example 55, N-{2-Methyl-1-(S)-[(4-trifluoromethoxy-phenylamino)-methyl]-propyl}-4-morpholin-4-yl-4-oxo-2-(S)-(4-trifluoromethyl-phenyl)-butyramide]","++ (++, >100)",,"+++ (+++, >1000)","++ (++, >100)",6.00 to 7.00
"Cc1ccc([C@H](CC(=O)N2CCOCC2)C(=O)N[C@H](CNc2ccc(OC(F)(F)F)cc2)C(C)C)cc1 [Example 57, N-{2-Methyl-1-(S)-[(4-trifluoromethoxy-phenylamino)-methyl]-propyl}-4-morpholin-4-yl-4-oxo-2-(S)-p-tolyl-butyramide]","++ (++, >100)",,"++ (++, >100)","++ (++, >100)",6.00 to 7.00
"C[C@@H](CNc1ccc(OC(F)(F)F)cc1)NC(=O)[C@@H](CC(=O)N1CCS(=O)(=O)CC1)CC1CCCCC1 [Example 58, 2-(R)-Cyclohexylmethyl-4-(1,1-dioxo-thiomorpholin-4-yl)-N-[1-(S)-methyl-2-(4-trifluoromethoxy-phenylamino)-ethyl]-4-oxo-butyramide]","++ (++, >100)",6.00 to 7.00,"++ (++, >100)","+ (+, >10)",
"CCC1(O)CCCC(C[C@H](CC(=O)N2CCOCC2)C(=O)N[C@@H](C)CNc2ccc(OC(F)(F)F)cc2)C1 (stereo partly drawn) [Example 59, 2-(R)-(3-Ethyl-3-hydroxy-cyclohexylmethyl)-N-[1-(S)-methyl-2-(4-trifluoromethoxy-phenylamino)-ethyl]-4-morpholin-4-yl-4-oxo-butyramide]","+ (+, >10)",5.00 to 6.00,"+ (+, >10)","+ (+, >10)",
"C[C@@H](CNc1ccc(OC(F)(F)F)cc1)NC(=O)[C@@H](CC(=O)N1CCOCC1)c1ccc(C(F)(F)F)cc1 [Example 60, N-[1-(S)-Methyl-2-(4-trifluoromethoxy-phenylamino)-ethyl]-4-morpholin-4-yl-4-oxo-2-(S)-(4-trifluoromethyl-phenyl)-butyramide]","+ (+, >10)",,"+ (+, >10)","+ (+, >10)",5.00 to 6.00
"C[C@@H](CNc1ccc(OC(F)(F)F)cc1)NC(=O)[C@@H](CC(=O)N1CCOCC1)c1ccccc1 [Example 61, N-[1-(S)-Methyl-2-(4-trifluoromethoxy-phenylamino)-ethyl]-4-morpholin-4-yl-4-oxo-2-(S)-phenyl-butyramide]","+ (+, >10)",5.00 to 6.00,"+ (+, >10)","+ (+, >10)",
"C[C@@H](CNc1ccc(OC(F)(F)F)cc1)NC(=O)[C@@H](CC(=O)N1CCOCC1)c1ccc(F)cc1 [Example 62, 2-(S)-(4-Fluoro-phenyl)-N-[1-(S)-methyl-2-(4-trifluoromethoxy-phenylamino)-ethyl]-4-morpholin-4-yl-4-oxo-butyramide]","++ (++, >100)",6.00 to 7.00,"++ (++, >100)","++ (++, >100)",
"COc1ccc([C@H](CC(=O)N2CCOCC2)C(=O)N[C@@H](C)CNc2ccc(OC(F)(F)F)cc2)cc1 [Example 63, 2-(S)-(4-Methoxy-phenyl)-N-[1-(S)-methyl-2-(4-trifluoromethoxy-phenylamino)-ethyl]-4-morpholin-4-yl-4-oxo-butyramide]","++ (++, >100)",6.00 to 7.00,"++ (++, >100)","++ (++, >100)",
"COc1ccc(NC[C@@H](NC(=O)[C@@H](CC(=O)N2CCOCC2)c2ccc(F)cc2)C(C)C)cn1 [Example 64, 2-(S)-(4-Fluoro-phenyl)-N-{1-(S)-[(6-methoxy-pyridin-3-ylamino)-methyl]-2-methyl-propyl}-4-morpholin-4-yl-4-oxo-butyramide]","++ (++, >100)",6.00 to 7.00,"+ (+, >10)","+ (+, >10)",
"C[C@@H](CNc1ccc(OC(F)(F)F)cc1)NC(=O)[C@@H](CC(=O)N1CCOCC1)CC1CCC2(CC1)CC2 [Example 65, N-[1-(S)-Methyl-2-(4-trifluoromethoxy-phenylamino)-ethyl]-4-morpholin-4-yl-4-oxo-2-(R)-spiro[2.5]oct-6-ylmethyl-butyramide]","++ (++, >100)",6.00 to 7.00,"++ (++, >100)","++ (++, >100)",
"CC(C)[C@@H](CNc1cccc(S(C)(=O)=O)c1)NC(=O)[C@@H](CC(=O)N1CCOCC1)c1ccc(F)cc1 [Example 67, 2-(S)-(4-Fluoro-phenyl)-N-{1-(S)-[(3-methanesulfonyl-phenylamino)-methyl]-2-methyl-propyl}-4-morpholin-4-yl-4-oxo-butyramide]","+ (+, >10)",5.00 to 6.00,"+ (+, >10)","+ (+, >10)",
"CC(C)[C@@H](CN1CC(C)(C)c2cc(F)ccc21)NC(=O)[C@@H](CC(=O)N1CCOCC1)c1ccc(C(F)(F)F)cc1 [Example 68, N-[1-(S)-(5-Fluoro-3,3-dimethyl-2,3-dihydro-indol-1-ylmethyl)-2-methyl-propyl]-4-morpholin-4-yl-4-oxo-2-(S)-(4-trifluoromethyl-phenyl)-butyramide]","+++ (+++, >1000)",> 7.00,"++ (++, >100)","+++ (+++, >1000)",
"CC1(C)CN(C[C@@H](NC(=O)[C@@H](CC(=O)N2CCOCC2)c2ccc(C(F)(F)F)cc2)C2CC2)c2ccc(F)cc21 [Example 69, N-[1-(S)-Cyclopropyl-2-(5-fluoro-3,3-dimethyl-2,3-dihydro-indol-1-yl)-ethyl]-4-morpholin-4-yl-4-oxo-2-(S)-(4-trifluoromethyl-phenyl)-butyramide]","++ (++, >100)",6.00 to 7.00,"+ (+, >10)","++ (++, >100)",
"O=C(N[C@H](CNc1ccc(OC(F)(F)F)cc1)C1CC1)[C@@H](CC(=O)N1CCOCC1)c1ccc(C(F)(F)F)cc1 [Example 70, N-[1-(S)-Cyclopropyl-2-(4-trifluoromethoxy-phenylamino)-ethyl]-4-morpholin-4-yl-4-oxo-2-(S)-(4-trifluoromethyl-phenyl)-butyramide]","++ (++, >100)",,"++ (++, >100)","++ (++, >100)",6.00 to 7.00
"COc1ccc(NC[C@H](C)NC(=O)[C@H](CC2CCCCC2)NC(=O)N2CCOCC2)cc1 [Example 72, (S,S)-Morpholine-4-carboxylic acid {2-cyclohexyl-1-[2-(4-methoxy-phenylamino)-1-methyl-ethylcarbamoyl]-ethyl}-amide]","++ (++, >100)",> 7.00,"++ (++, >100)","+ (+, >10)",
"COc1ccc(NC[C@H](C)NC(=O)[C@H](CC2CCCC2)NC(=O)N2CCOCC2)cc1 [Example 73, Morpholine-4-carboxylic acid {2-cyclopentyl-1-(S)-[2-(4-methoxy-phenylamino)-1-(S)-methyl-ethylcarbamoyl]-ethyl}-amide]","++ (++, >100)",> 7.00,"+ (+, >10)","+ (+, >10)",

# Source: US7732449B2, “Inhibitors of cathepsin S” (IRM LLC, priority 2003, dated 2010)
